Measurements from US20030153731A1, “Endothelial cell-leukocyte adhesion molecules (ELAMs) and molecules involved in leukocyte adhesion (MILAs)” (priority 1989, published 2003).

T1: 1,3-fucosyl transferase in extracts from CHO cells transfected with clone 7.2 (Homo sapiens, UniProt P22083)
T1 construct: expressed in transfected cells; host or cells: CHO cells transfected with clone 7.2; Triton X-100 lysate
T1 sequence (P22083 1-405 isoform P22083-2): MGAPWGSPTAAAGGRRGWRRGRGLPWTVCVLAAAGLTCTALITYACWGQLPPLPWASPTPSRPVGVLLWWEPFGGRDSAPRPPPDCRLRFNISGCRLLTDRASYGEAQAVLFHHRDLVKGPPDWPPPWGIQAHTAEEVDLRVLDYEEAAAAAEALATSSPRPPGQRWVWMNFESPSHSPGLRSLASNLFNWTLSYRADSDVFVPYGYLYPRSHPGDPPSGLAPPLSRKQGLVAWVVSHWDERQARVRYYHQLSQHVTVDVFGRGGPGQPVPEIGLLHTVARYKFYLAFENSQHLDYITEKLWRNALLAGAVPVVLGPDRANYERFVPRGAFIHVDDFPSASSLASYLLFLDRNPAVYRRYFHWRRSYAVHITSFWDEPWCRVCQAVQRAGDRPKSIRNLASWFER

B1: rsELAM1: portion of the extracellular domain of ELAM1 encoded by nucleotides 141 to 1790 of FIG. 1 (protein, UniProt P16581 22-556, looked up)
extracellular domain: WSYNTSTEAMTYDEASAYCQQRYTHLVAIQNKEEIEYLNSILSYSPSYYWIGIRKVNNVWVWVGTQKPLTEEAKNWAPGEPNNRQKDEDCVEIYIKREKDVGMWNDERCSKKKLALCYTAACTNTSCSGHGECVETINNYTCKCDPGFSGLKCEQIVNCTALESPEHGSLVCSHPLGNFSYNSSCSISCDRGYLPSSMETMQCMSSGEWSAPIPACNVVECDAVTNPANGFVECFQNPGSFPWNTTCTFDCEEGFELMGAQSLQCTSSGNWDNEKPTCKAVTCRAVRQPQNGSVRCSHSPAGEFTFKSSCNFTCEEGFMLQGPAQVECTTQGQWTQQIPVCEAFQCTALSNPERGYMNCLPSASGSFRYGSSCEFSCEQGFVLKGSKRLQCGPTGEWDNEKPTCEAVRCDAVHQPPKGLVRCAHSPIGEFTYKSSCAFSCEEGFELHGSTQLECTSQGQWTEEVPSCQVVKCSSLAVPGKINMSCSGEPVFGTVCKFACPEGWTLNGSAARTCGATGHWSGLLPTCEAPTESNIP
modifications: extracellular domain

Experiments:
[1] = biological target: T1, 1,3-fucosyl transferase in extracts from CHO cells transfected with clone 7.2; assay: fucosyl transferase enzyme assay: linking 14C-fucose to acceptor molecules; type: biochemical; details: for Efficiency of Fucosylation: enzyme freshly produced from transfected CHO cells, 1 hour at 37° C; for linking of fucose to acceptor by the induced enzyme: extract of CHO cells transfected with clone 7.2
Method: The assays tested the ability of the enzyme to link radioactively labelled fucose to an acceptor molecule. We performed the assays as follows.
We prepared assay samples containing 10 μl enzyme, 8 μl cocktail and 2 μl 10×acceptor. We prepared the enzyme by isolating about 1.5 million CHO cells transfected with clone 7.2 and lysing them by sonication for 15 seconds in 150 μl ice-cold 1% Triton X-100 in water. The cocktail contained 75 μM ^14C-GDP fucose, 100 mM ATP, 500 mM L-fucose, 1 M MnCl2 and 1 M cacodylate at pH 6.2. 10×acceptor contained, variously, 200 mM LacNAc, Lac-N-biose, or lactose, 250 mM phenyl-β-D-galactoside, or 50 mM 2′-fucosyllactose. We incubated the assay samples for 1 hour at 37° C. We stopped the reaction by addition of 20 μl ethanol. We diluted the sample with 560 μl water and centrifuged in an EPPENDORF centrifuge for 5 minutes at high speed.
We had prepared a DOWEX 1×2-400 column (Sigma Chemical Co.) to separate the unconverted ^14C fucose-GDP from the converted. We loaded the matrix into a large column and washed it with 10 volumes of iN NaOH, followed by 5 volumes of water, followed by 10 volumes of 5% concentrated formic acid. Then we repeated this wash cycle. We used this material to create small columns of 0.4 ml. We prepared the small columns for use by washing them with 10 volumes of water.
We loaded 200 μl of the sample onto the small column, collected the eluate, rinsed with 2 ml water and collected it into the eluate. We determined the radioactivity of this eluate by scintillation counting.

HL-60 cells; RAMOS cells = assay: cell binding to rsELAM1-coated plates; type: cell-based, human
Method: To a 6 cm diameter Petri dish of bacteriologic plastic (e.g., Falcon 110070) we added 2.5 ml of 50 mM Tris buffer, pH 9.5. To this we added 10 μg of pure rsELAM1. We incubated the plate for 60 minutes at room temperature to allow the rsELAM1 to bind to the plate. Then we aspirated the medium and replaced it with PBS containing 10 mg/ml bovine serum albumin. We incubated the plates overnight at 40 in this solution to block remaining protein binding sites on the plates. We warmed the plates to room temperature, washed them with medium containing 10% fetal calf serum, and incubated them with 2 ml of cells (2×10^6 ml^−1) for 20 minutes. We aspirated the medium and washed the plates twice with 3 ml each of medium (RPMI 1640 with 10% serum). Then we examined the plates by microscopy.
A second assay would test the ability of a small molecule to inhibit cell binding to ELAM itself. We have developed such an assay with rsELAM1 which works in 96 well microtiter plates. These plates, made of bacteriologic plastic (e.g. Linbro/Titertek #76-232-050), are incubated with 0.5 μg per well of rsELAM1 in 50 μl of 15 mM sodium carbonate/35 mM sodium bicarbonate, pH 9.2, overnight at 40. The plates are then blocked for one hour at room temperature with PBS containing 10 mg/ml of bovine serum albumin, and then adhesion assays performed as described in Example VIII using, e.g., HL-60 cells, 2×10^6/ml, 50 μl per well. Under these conditions HL-60 cells bind well to rsELAM1, providing a convenient microassay for screening. One would identify inhibitors by their ability to inhibit HL-60 binding to the plate. Alternatively, one could use an ELAM ligand in this assay, using as the probe a cell line that stably expresses an ELAM.

Molecule	Efficiency of Fucosylation [1]	linking of fucose to acceptor by the induced enzyme [1]	binding of HL-60 cells to rsELAM1 in 96 well microtiter plates (HL-60 cells; RAMOS cells; 0.5 μg per well rsELAM1, HL-60 2×10^6/ml, 50 μl per well)	binding of HL-60 cells to rsELAM1-coated plates (HL-60 cells; RAMOS cells; 6 cm Petri dish, 10 μg rsELAM1)	binding of RAMOS cells to rsELAM1-coated plates (HL-60 cells; RAMOS cells; 6 cm Petri dish, 10 μg rsELAM1)
CC(=O)N[C@@H]1[C@@H](O[C@@H]2O[C@H](CO)[C@H](O)[C@H](O)[C@H]2O)[C@H](O)[C@@H](CO)O[C@@H]1O [Lac-N-Biose, Lac-N-biose]	76 picomoles/mg Total protein · h	did not link fucose			
CC(=O)N[C@H]1C(O)O[C@H](CO)[C@@H](O[C@@H]2O[C@H](CO)[C@H](O)[C@H](O)[C@H]2O)[C@@H]1O (some centres unmarked) [LacNAc]	1110 picomoles/mg Total protein · h	linked fucose			
OC[C@H]1O[C@@H](O[C@H]2[C@H](O)[C@@H](O)C(O)O[C@@H]2CO)[C@H](O)[C@@H](O)[C@H]1O (some centres unmarked) [Lactose, lactose]	290 picomoles/mg Total protein · h	linked fucose			
OC[C@H]1O[C@@H](Oc2ccccc2)[C@H](O)[C@@H](O)[C@H]1O [PhβDgal, phenyl-β-D-galactoside]	Not detectable	did not link fucose			
B1			bind well	bind to rsELAM1-coated plates	do not bind to these plates
